ChEMBL document CHEMBL5226279, “Mercaptoacetamide: A promising zinc-binding group for the discovery of selective histone deacetylase 6 inhibitors” (Eur J Med Chem, 2021)

Key:
Histone deacetylase 1 [1] = target: T1, Histone deacetylase 1 (Homo sapiens, UniProt Q13547); experiment: Inhibition of human HDAC1 using FAM-labeled acetylated peptide as substrate incubated for 17 hrs by fluorescence based assay
Histone deacetylase 2 = Histone deacetylase 2 (Homo sapiens, UniProt Q92769); experiment: Inhibition of human HDAC2 using FAM-labeled acetylated peptide as substrate incubated for 17 hrs by fluorescence based assay
Histone deacetylase 8 = target: T2, Histone deacetylase 8 (Homo sapiens, UniProt Q9BY41); experiment: Inhibition of human HDAC8 using FAM-labeled acetylated peptide as substrate incubated for 17 hrs by fluorescence based assay
T2 sequence (Q9BY41 whole entry): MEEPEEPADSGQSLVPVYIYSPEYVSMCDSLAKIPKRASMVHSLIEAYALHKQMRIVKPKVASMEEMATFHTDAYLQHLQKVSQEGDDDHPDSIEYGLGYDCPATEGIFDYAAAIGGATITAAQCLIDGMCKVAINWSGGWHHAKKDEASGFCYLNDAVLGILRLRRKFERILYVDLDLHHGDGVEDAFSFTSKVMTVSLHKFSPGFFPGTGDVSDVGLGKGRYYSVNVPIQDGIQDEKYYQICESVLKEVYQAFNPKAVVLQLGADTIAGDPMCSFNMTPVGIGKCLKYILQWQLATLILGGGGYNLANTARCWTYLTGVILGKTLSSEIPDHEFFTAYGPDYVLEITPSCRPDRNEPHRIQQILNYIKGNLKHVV

[2] = target: T3, Protein deacetylase HDAC6 (Homo sapiens, UniProt Q9UBN7); experiment: Inhibition of human HDAC6 using FAM-labeled acetylated peptide as substrate incubated for 17 hrs by fluorescence based assay
T3 sequence (Q9UBN7 whole entry): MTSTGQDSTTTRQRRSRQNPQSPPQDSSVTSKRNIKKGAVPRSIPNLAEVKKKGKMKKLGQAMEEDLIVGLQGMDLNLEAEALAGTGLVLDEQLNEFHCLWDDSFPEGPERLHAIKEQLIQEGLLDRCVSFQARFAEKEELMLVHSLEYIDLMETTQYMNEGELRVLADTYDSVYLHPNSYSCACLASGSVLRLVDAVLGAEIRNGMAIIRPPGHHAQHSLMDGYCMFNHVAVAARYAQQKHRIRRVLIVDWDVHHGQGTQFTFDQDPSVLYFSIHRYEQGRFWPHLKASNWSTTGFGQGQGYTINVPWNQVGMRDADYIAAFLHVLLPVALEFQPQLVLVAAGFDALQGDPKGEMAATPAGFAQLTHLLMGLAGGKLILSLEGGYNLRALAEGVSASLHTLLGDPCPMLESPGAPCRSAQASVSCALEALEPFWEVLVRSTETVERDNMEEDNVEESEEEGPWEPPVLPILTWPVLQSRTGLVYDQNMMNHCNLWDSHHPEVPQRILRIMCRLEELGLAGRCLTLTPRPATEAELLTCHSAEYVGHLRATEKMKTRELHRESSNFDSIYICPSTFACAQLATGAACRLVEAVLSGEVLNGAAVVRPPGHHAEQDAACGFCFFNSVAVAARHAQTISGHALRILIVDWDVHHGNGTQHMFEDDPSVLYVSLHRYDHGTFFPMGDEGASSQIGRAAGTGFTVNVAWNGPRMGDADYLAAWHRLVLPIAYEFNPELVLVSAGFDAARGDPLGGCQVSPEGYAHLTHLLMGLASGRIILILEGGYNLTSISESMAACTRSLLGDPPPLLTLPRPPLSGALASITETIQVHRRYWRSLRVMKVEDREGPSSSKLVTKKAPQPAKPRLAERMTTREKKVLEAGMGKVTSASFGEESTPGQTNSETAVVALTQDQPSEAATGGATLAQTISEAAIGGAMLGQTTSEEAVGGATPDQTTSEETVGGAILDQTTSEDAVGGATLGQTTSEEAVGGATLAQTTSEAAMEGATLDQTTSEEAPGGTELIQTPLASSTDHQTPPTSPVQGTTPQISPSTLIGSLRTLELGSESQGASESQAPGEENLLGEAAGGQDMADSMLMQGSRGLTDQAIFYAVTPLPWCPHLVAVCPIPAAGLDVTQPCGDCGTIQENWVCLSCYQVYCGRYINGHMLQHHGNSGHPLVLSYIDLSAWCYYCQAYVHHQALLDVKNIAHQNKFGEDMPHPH

[3] = target: T4, Polyamine deacetylase HDAC10 (Homo sapiens, UniProt Q969S8); experiment: Inhibition of human HDAC10 using FAM-labeled acetylated peptide as substrate incubated for 17 hrs by fluorescence based assay
T4 sequence (Q969S8 whole entry): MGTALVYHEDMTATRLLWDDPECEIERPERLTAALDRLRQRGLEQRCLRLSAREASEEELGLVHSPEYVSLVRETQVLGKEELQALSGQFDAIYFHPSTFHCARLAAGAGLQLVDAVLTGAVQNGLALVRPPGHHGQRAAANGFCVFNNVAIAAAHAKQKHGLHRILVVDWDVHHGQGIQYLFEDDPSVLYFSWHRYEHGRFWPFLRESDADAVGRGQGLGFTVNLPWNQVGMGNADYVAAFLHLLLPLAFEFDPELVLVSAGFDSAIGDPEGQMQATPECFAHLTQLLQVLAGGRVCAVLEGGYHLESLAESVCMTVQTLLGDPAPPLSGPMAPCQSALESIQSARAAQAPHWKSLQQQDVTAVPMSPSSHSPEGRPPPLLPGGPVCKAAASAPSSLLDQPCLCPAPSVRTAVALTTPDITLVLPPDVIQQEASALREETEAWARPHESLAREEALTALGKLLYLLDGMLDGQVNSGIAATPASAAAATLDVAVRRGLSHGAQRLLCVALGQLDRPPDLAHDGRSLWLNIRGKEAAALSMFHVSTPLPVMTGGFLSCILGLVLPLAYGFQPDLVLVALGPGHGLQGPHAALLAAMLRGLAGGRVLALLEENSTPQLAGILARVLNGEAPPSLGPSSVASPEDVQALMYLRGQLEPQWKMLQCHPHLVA

Histone deacetylase 1 [4] = target: T1, Histone deacetylase 1; experiment: Inhibition of human HDAC1
Histone deacetylase 3 = Histone deacetylase 3 (Homo sapiens, UniProt O15379); experiment: Inhibition of human HDAC3 using FAM-labeled acetylated peptide as substrate incubated for 17 hrs by fluorescence based assay
Histone deacetylase = experiment: Inhibition of HDAC (unknown origin); type: protein assay, Homo sapiens
[5] = target: T3, Protein deacetylase HDAC6; experiment: Inhibition of human HDAC6

T1 sequence (Q13547 whole entry): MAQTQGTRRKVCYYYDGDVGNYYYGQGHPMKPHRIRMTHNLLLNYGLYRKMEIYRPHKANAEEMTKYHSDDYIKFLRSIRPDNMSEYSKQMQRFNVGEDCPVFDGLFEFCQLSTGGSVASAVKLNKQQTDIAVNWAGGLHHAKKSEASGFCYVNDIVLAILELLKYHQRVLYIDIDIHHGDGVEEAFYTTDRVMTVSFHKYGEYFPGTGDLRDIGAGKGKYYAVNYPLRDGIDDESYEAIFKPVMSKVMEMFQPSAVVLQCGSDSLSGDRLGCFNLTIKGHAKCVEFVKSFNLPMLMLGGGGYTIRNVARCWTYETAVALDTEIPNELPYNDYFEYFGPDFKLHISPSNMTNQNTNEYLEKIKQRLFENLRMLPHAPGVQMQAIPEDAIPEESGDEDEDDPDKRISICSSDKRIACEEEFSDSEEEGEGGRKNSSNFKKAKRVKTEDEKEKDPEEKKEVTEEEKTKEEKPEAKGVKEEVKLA
Histone deacetylase 2, sequence (Q92769 whole entry): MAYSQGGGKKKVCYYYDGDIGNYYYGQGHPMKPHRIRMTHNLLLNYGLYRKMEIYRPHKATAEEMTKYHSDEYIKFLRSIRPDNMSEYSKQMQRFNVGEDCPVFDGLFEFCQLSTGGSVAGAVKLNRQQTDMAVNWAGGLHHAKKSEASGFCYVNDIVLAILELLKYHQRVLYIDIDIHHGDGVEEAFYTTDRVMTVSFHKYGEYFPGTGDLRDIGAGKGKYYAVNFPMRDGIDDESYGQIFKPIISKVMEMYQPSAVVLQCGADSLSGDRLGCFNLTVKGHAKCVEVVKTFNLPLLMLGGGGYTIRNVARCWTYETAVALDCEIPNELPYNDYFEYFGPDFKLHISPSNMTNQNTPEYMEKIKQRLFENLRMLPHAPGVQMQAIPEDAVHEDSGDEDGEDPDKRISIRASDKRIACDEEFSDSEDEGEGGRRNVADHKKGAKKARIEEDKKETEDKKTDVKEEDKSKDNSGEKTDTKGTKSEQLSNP
Histone deacetylase 3, sequence (O15379 whole entry): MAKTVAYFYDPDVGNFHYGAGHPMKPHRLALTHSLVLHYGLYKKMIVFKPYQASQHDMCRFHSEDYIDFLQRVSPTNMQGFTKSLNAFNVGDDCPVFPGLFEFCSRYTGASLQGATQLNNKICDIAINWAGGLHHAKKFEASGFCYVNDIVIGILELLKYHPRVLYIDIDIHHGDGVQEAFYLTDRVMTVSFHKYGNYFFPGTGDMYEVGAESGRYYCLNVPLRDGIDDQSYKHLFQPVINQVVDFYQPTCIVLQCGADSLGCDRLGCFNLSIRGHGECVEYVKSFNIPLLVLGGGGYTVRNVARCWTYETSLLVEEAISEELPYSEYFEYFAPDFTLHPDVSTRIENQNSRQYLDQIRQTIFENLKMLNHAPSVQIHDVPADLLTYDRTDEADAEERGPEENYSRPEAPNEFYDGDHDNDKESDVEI

IC50 (Histone deacetylase 1 [4])	IC50 (Histone deacetylase)	Compound	IC50 (Histone deacetylase 1 [1])	IC50 (Histone deacetylase 2)	IC50 (Histone deacetylase 8)	IC50 [2]	IC50 [3]	other results
–	–	NCC(=O)Nc1ccccc1-c1ccc(NC(=O)CCCCCNC(=O)CS)cc1	3.96 µM	16 µM	6.03 µM	0.39 µM	7.43 µM	–
7.9 µM	–	O=C(CS)NCCCCCn1ccc2cc(Cl)c(Cl)cc21	–	–	–	–	–	–
–	–	N[C@@H](Cc1c[nH]c2ccccc12)C(=O)Nc1ccccc1-c1ccc(NC(=O)CCCCCNC(=O)CS)cc1	7.09 µM	> 30 µM	11.3 µM	0.66 µM	> 30 µM	IC50 (Histone deacetylase 3): 4.33 µM
–	3.02 µM	CC(C)C(NC(=O)CCCNC(=O)CS)C(=O)Nc1cnc2ccccc2c1 (racemic)	–	–	–	–	–	–
–	25.1 µM	CC(C)C(NC(=O)CCNC(=O)CS)C(=O)Nc1cnc2ccccc2c1 (racemic)	–	–	–	–	–	–
2.2 µM	–	O=C(/C=C/c1ccccc1Cl)NO	–	–	–	–	–	IC50 [5]: 0.1 µM
